# Measured values published in the supplement of paper PMC10307832.
# What was measured:
# Assay in all cases: relative viability (nuclei count vs DMSO), 5 days (fraction); higher = more cells survive
# NCI-H1975 = test system: NCI-H1975
# Outline: (§1)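 Each reported value is a median over duplicate plates. It expresses relative viability: treated-well nuclei count divided by vehicle-well nuclei count. Lung cancer cell lines in 1536-well plates were dosed by pin tool a day after seeding, alone with one drug or with a fixed anchor-drug dose plus five library-drug doses (not always all listed) in √10 steps, and nuclei were counted after 5 days.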
# NCI-H441 = test system: NCI-H441
# Outline: as §1
# NCI-H1666 = test system: NCI-H1666
# Outline: as §1
# NCI-H3122 = test system: NCI-H3122
# Outline: as §1
# NCI-H2085 = test system: NCI-H2085
# Outline: as §1
# NCI-H358 = test system: NCI-H358
# Outline: as §1
# NCI-H322M = test system: NCI-H322M
# Outline: as §1
# HOP-62 = test system: HOP-62
# Outline: as §1
# NCI-H1755 = test system: NCI-H1755
# Outline: as §1
# CAL-12T = test system: CAL-12T
# Outline: as §1
# NCI-H2023 = test system: NCI-H2023
# Outline: as §1
# NCI-H2126 = test system: NCI-H2126
# Outline: as §1
# COR-L 105 = test system: COR-L 105
# Outline: as §1
# ABC-1 = test system: ABC-1
# Outline: as §1
# HCC-78 = test system: HCC-78
# Outline: as §1
# EPLC-272H = test system: EPLC-272H
# Outline: as §1
# NCI-H1993 = test system: NCI-H1993
# Outline: as §1
# NCI-H1915 = test system: NCI-H1915
# Outline: as §1
# LXF-289 = test system: LXF-289
# Outline: as §1
# EMC-BAC-2 = test system: EMC-BAC-2
# Outline: as §1
# HCC-15 = test system: HCC-15
# Outline: as §1
# UMC-11 = test system: UMC-11
# Outline: as §1
# ChaGo-K-1 = test system: ChaGo-K-1
# Outline: as §1
compound,measurement,setting,value
CC1(C)CCC(c2ccc(Cl)cc2)=C(CN2CCN(c3ccc(C(=O)NS(=O)(=O)c4ccc(N[C@H](CCN5CCOCC5)CSc5ccccc5)c(S(=O)(=O)C(F)(F)F)c4)cc3)CC2)C1 [Navitoclax] + N=C(N)NC(=N)NCCc1ccccc1 [Phenformin] (partner 250 µM),relative viability,NCI-H1975; first compound 0.005 µM,0.427
same,relative viability,NCI-H1975; first compound 0.01581 µM,0.428
same,relative viability,NCI-H1975; first compound 0.05 µM,0.454
same,relative viability,NCI-H1975; first compound 0.1581 µM,0.414
same,relative viability,NCI-H1975; first compound 0.5 µM,0.42
same,relative viability,NCI-H441; first compound 0.005 µM,0.919
same,relative viability,NCI-H441; first compound 0.01581 µM,1.14
same,relative viability,NCI-H441; first compound 0.05 µM,0.846
same,relative viability,NCI-H441; first compound 0.1581 µM,0.851
same,relative viability,NCI-H441; first compound 0.5 µM,0.818
same,relative viability,NCI-H1666; first compound 0.005 µM,0.604
same,relative viability,NCI-H1666; first compound 0.01581 µM,0.573
same,relative viability,NCI-H1666; first compound 0.05 µM,0.511
same,relative viability,NCI-H1666; first compound 0.1581 µM,0.534
same,relative viability,NCI-H1666; first compound 0.5 µM,0.559
same,relative viability,NCI-H3122; first compound 0.005 µM,0.402
same,relative viability,NCI-H3122; first compound 0.01581 µM,0.423
same,relative viability,NCI-H3122; first compound 0.05 µM,0.306
same,relative viability,NCI-H3122; first compound 0.1581 µM,0.348
same,relative viability,NCI-H3122; first compound 0.5 µM,0.391
same,relative viability,NCI-H2085; first compound 0.005 µM,0.732
same,relative viability,NCI-H2085; first compound 0.01581 µM,0.847
same,relative viability,NCI-H2085; first compound 0.05 µM,0.593
same,relative viability,NCI-H2085; first compound 0.1581 µM,0.746
same,relative viability,NCI-H2085; first compound 0.5 µM,0.786
same,relative viability,NCI-H358; first compound 0.005 µM,0.362
same,relative viability,NCI-H358; first compound 0.01581 µM,0.376
same,relative viability,NCI-H358; first compound 0.05 µM,0.357
same,relative viability,NCI-H358; first compound 0.1581 µM,0.343
same,relative viability,NCI-H358; first compound 0.5 µM,0.424
same,relative viability,NCI-H322M; first compound 0.005 µM,0.805
same,relative viability,NCI-H322M; first compound 0.01581 µM,0.923
same,relative viability,NCI-H322M; first compound 0.05 µM,0.776
same,relative viability,NCI-H322M; first compound 0.1581 µM,0.848
same,relative viability,NCI-H322M; first compound 0.5 µM,0.954
same,relative viability,HOP-62; first compound 0.005 µM,0.639
same,relative viability,HOP-62; first compound 0.01581 µM,0.673
same,relative viability,HOP-62; first compound 0.05 µM,0.65
same,relative viability,HOP-62; first compound 0.1581 µM,0.669
same,relative viability,HOP-62; first compound 0.5 µM,0.702
same,relative viability,NCI-H1755; first compound 0.005 µM,0.639
same,relative viability,NCI-H1755; first compound 0.01581 µM,0.659
same,relative viability,NCI-H1755; first compound 0.05 µM,0.575
same,relative viability,NCI-H1755; first compound 0.1581 µM,0.521
same,relative viability,NCI-H1755; first compound 0.5 µM,0.43
same,relative viability,CAL-12T; first compound 0.005 µM,0.527
same,relative viability,CAL-12T; first compound 0.01581 µM,0.655
same,relative viability,CAL-12T; first compound 0.05 µM,0.6
same,relative viability,CAL-12T; first compound 0.1581 µM,0.503
same,relative viability,CAL-12T; first compound 0.5 µM,0.582
same,relative viability,NCI-H2023; first compound 0.005 µM,0.432
same,relative viability,NCI-H2023; first compound 0.01581 µM,0.447
same,relative viability,NCI-H2023; first compound 0.05 µM,0.382
same,relative viability,NCI-H2023; first compound 0.1581 µM,0.425
same,relative viability,NCI-H2023; first compound 0.5 µM,0.428
same,relative viability,NCI-H2126; first compound 0.005 µM,0.527
same,relative viability,NCI-H2126; first compound 0.01581 µM,0.53
same,relative viability,NCI-H2126; first compound 0.05 µM,0.45
same,relative viability,NCI-H2126; first compound 0.1581 µM,0.42
same,relative viability,NCI-H2126; first compound 0.5 µM,0.444
same,relative viability,COR-L 105; first compound 0.005 µM,0.464
same,relative viability,COR-L 105; first compound 0.01581 µM,0.746
same,relative viability,COR-L 105; first compound 0.05 µM,0.431
same,relative viability,COR-L 105; first compound 0.1581 µM,0.503
same,relative viability,COR-L 105; first compound 0.5 µM,0.405
same,relative viability,ABC-1; first compound 0.005 µM,0.245
same,relative viability,ABC-1; first compound 0.01581 µM,0.292
same,relative viability,ABC-1; first compound 0.05 µM,0.277
same,relative viability,ABC-1; first compound 0.1581 µM,0.257
same,relative viability,ABC-1; first compound 0.5 µM,0.215
same,relative viability,HCC-78; first compound 0.005 µM,0.727
same,relative viability,HCC-78; first compound 0.01581 µM,0.692
same,relative viability,HCC-78; first compound 0.1581 µM,0.645
same,relative viability,HCC-78; first compound 0.5 µM,0.75
same,relative viability,EPLC-272H; first compound 0.005 µM,0.376
same,relative viability,EPLC-272H; first compound 0.05 µM,0.324
same,relative viability,EPLC-272H; first compound 0.1581 µM,0.329
same,relative viability,EPLC-272H; first compound 0.5 µM,0.253
same,relative viability,NCI-H1993; first compound 0.005 µM,0.545
same,relative viability,NCI-H1993; first compound 0.01581 µM,0.498
same,relative viability,NCI-H1993; first compound 0.05 µM,0.629
same,relative viability,NCI-H1993; first compound 0.1581 µM,0.587
same,relative viability,NCI-H1993; first compound 0.5 µM,0.616
same,relative viability,NCI-H1915; first compound 0.005 µM,0.382
same,relative viability,NCI-H1915; first compound 0.01581 µM,0.431
same,relative viability,NCI-H1915; first compound 0.05 µM,0.441
same,relative viability,NCI-H1915; first compound 0.1581 µM,0.42
same,relative viability,NCI-H1915; first compound 0.5 µM,0.388
same,relative viability,LXF-289; first compound 0.005 µM,0.524
same,relative viability,LXF-289; first compound 0.01581 µM,0.531
same,relative viability,LXF-289; first compound 0.05 µM,0.498
same,relative viability,LXF-289; first compound 0.1581 µM,0.506
same,relative viability,LXF-289; first compound 0.5 µM,0.5
same,relative viability,EMC-BAC-2; first compound 0.005 µM,0.496
same,relative viability,EMC-BAC-2; first compound 0.01581 µM,0.604
same,relative viability,EMC-BAC-2; first compound 0.05 µM,0.523
same,relative viability,EMC-BAC-2; first compound 0.1581 µM,0.498
same,relative viability,EMC-BAC-2; first compound 0.5 µM,0.489
same,relative viability,HCC-15; first compound 0.005 µM,0.453
same,relative viability,HCC-15; first compound 0.01581 µM,0.488
same,relative viability,HCC-15; first compound 0.05 µM,0.406
same,relative viability,HCC-15; first compound 0.1581 µM,0.483
same,relative viability,HCC-15; first compound 0.5 µM,0.422
same,relative viability,UMC-11; first compound 0.005 µM,0.303
same,relative viability,UMC-11; first compound 0.01581 µM,0.323
same,relative viability,UMC-11; first compound 0.05 µM,0.35
same,relative viability,UMC-11; first compound 0.1581 µM,0.242
same,relative viability,UMC-11; first compound 0.5 µM,0.273
same,relative viability,ChaGo-K-1; first compound 0.005 µM,0.459
same,relative viability,ChaGo-K-1; first compound 0.01581 µM,0.502
same,relative viability,ChaGo-K-1; first compound 0.05 µM,0.397
same,relative viability,ChaGo-K-1; first compound 0.1581 µM,0.48
same,relative viability,ChaGo-K-1; first compound 0.5 µM,0.501
